The record followed here is patent US10544130B2, “Metallo-beta-lactamase inhibitors” (priority 2015, dated 2020).

This series deals with Pseudomonas aeruginosa PAO1 MB9798 (efflux+, IMP-1). To be noted: ratio MITC95 PA 9798/MITC95 PA 9799; imipenem at 2 μg/mL. The source says: The strain background was Pseudomonas aeruginosa PAO1.
The strain set was then used as a pair to determine the effect of metallo-β-lactamase inhibitors of Formula I on the MIC of imipenem and/or ceftazidime. A fixed concentration of antibiotic was included in standard microbroth MIC tests, usually at the CLSI (Clinical and Laboratory Standards Institute) breakpoint concentration. A fixed amount of a class A/C beta-lactamase inhibitor was also included to inhibit the resident Pseudomonas AmpC enzyme. A serial titration of the metallo-β-lactamase inhibitor was included and the concentration of metallo-β-lactamase inhibitor which restores susceptibility of the strain to the included antibiotic was recorded. That concentration of metallo-β-lactamase inhibitor was then compared between the two strains to determine the fold difference between the efflux + (MB9798) and efflux − (MB9799) strains. This was taken as an indication of the extent to which the MBLi is subject to efflux.

`Nc1nc2c(-c3ccc(S(=O)(=O)N4CCC[C@H](N)C4)c(S(N)(=O)=O)c3-c3nnn[nH]3)cccc2s1` [Example 66, 3-(2-amino-1,3-benzothiazol-4-yl)-6-{[(3S)-3-aminopiperidin-1-yl]sulfonyl}-2-(1H-tetrazol-5-yl)benzenesulfonamide]: the Efflux ratio is listed as 2.00.
Then `CN(C)C(=O)CNS(=O)(=O)c1ccc(-c2cccc3sc(N)nc23)c(-c2nnn[nH]2)c1S(N)(=O)=O` [Example 36, N^2-{[4-(2-amino-1,3-benzothiazol-4-yl)-2-sulfamoyl-3-(1H-tetrazol-5-yl)phenyl]sulfonyl}-N,N-dimethylglycinamide], with 1.00.
`NCC(CN)NS(=O)(=O)c1ccc(-c2cccc(-c3nc[nH]n3)c2)c(-c2nn[nH]n2)c1S(N)(=O)=O` [Example 227, N4-(1,3-diaminopropan-2-yl)-2-(2H-tetrazol-5-yl)-3′-(1H-1,2,4-triazol-3-yl)-[1,1′-biphenyl]-3,4-disulfonamide]: the Efflux ratio was found to be 1.00.
Then `Nc1nc2c(-c3ccc(S(=O)(=O)NCCN4CCNC(=O)C4)c(S(N)(=O)=O)c3-c3nnn[nH]3)cccc2s1` [Example 15, 4-(2-amino-1,3-benzothiazol-4-yl)-N1-[2-(3-oxopiperazin-1-yl)ethyl]-3-(1H-tetrazol-5-yl)benzene-1,2-disulfonamide], with 1.00; and `CN(C1CCCNC1)S(=O)(=O)c1ccc(-c2cccc3sc(N)nc23)c(-c2nnn[nH]2)c1S(N)(=O)=O` (stereo not shown) [Example 64, 4-(2-amino-1,3-benzothiazol-4-yl)-N1-methyl-N1-piperidin-3-yl-3-(1H-tetrazol-5-yl)benzene-1,2-disulfonamide], with 2.00; and `Nc1nc2c(-c3ccc(S(=O)(=O)NC4CC5CNC4C5)c(S(N)(=O)=O)c3-c3nnn[nH]3)cccc2s1` (stereo not shown) [Example 89, 4-(2-aminobenzo[d]thiazol-4-yl)-N^1-(2-azabicyclo[2.2.1]heptan-6-yl)-3-(1H-tetrazol-5-yl)benzene-1,2-disulfonamide], with 1.00.
In the case of `NS(=O)(=O)c1c(S(=O)(=O)N[C@@H]2CCNC2)ccc(-c2cccc3nc(O)[nH]c23)c1-c1nnn[nH]1` [Example 130, (R)-4-(2-hydroxy-1H-benzo[d]imidazol-7-yl)-N1-(pyrrolidin-3-yl)-3-(1H-tetrazol-5-yl)benzene-1,2-disulfonamide], the Efflux ratio is recorded as 0.50.
The result for `C[C@@H](CN)NS(=O)(=O)c1ccc(-c2cccc3[nH]c(N)nc23)c(-c2nn[nH]n2)c1S(N)(=O)=O` [Example 186, 4-(2-amino-1H-benzo[d]imidazol-4-yl)-N^1—((S)-1-aminopropan-2-yl)-3-(2H-tetrazol-5-yl)benzene-1,2-disulfonamide] reads 2.00.
As for `Nc1nc2c(-c3ccc(S(=O)(=O)NCCC(N)C(F)(F)F)c(S(N)(=O)=O)c3-c3nnn[nH]3)cccc2s1` (stereo not shown) [Example 49, 4-(2-amino-1,3-benzothiazol-4-yl)-N1-(3-amino-4,4,4-trifluorobutyl)-3-(1H-tetrazol-5-yl)benzene-1,2-disulfonamide], the Efflux ratio worked out at 8.00.
Take `Nc1nc2c(-c3ccc(S(=O)(=O)NCC4CCNC4)c(S(N)(=O)=O)c3-c3nnn[nH]3)cccc2s1.O=CO` (stereo not shown) [Example 120, 3-((4-(2-aminobenzo[d]thiazol-4-yl)-2-sulfamoyl-3-(1H-tetrazol-5-yl)phenylsulfonamido)methyl)pyrrolidin-1-ium formate]: the Efflux ratio worked out at 0.50.
Regarding `Nc1nc2c(-c3ccc(S(=O)(=O)N4CC5(CCNC5)C4)c(S(N)(=O)=O)c3-c3nnn[nH]3)cccc2s1` [Example 48, 3-(2-amino-1,3-benzothiazol-4-yl)-6-(2,6-diazaspiro[3.4]oct-2-ylsulfonyl)-2-(1H-tetrazol-5-yl)benzenesulfonamide], the Efflux ratio amounted to 1.00.
Regarding `Nc1ccc(-c2ccc(S(=O)(=O)NC[C@@H](N)CO)c(S(N)(=O)=O)c2-c2nn[nH]n2)cn1` [Example 365, (R)—N1-(2-amino-3-hydroxypropyl)-4-(6-aminopyridin-3-yl)-3-(2H-tetrazol-5-yl) benzene-1,2-disulfonamide], the Efflux ratio is recorded as 2.00.
As to `NS(=O)(=O)c1ccc(-c2ccc(S(=O)(=O)N[C@@H]3CCNC3)c(S(N)(=O)=O)c2-c2nnn[nH]2)cc1` [Example 135, (R)-N4-(pyrrolidin-3-yl)-2-(1H-tetrazol-5-yl)-[1,1′-biphenyl]-3,4,4′-trisulfonamide], the Efflux ratio was found to be 1.00.
The result for `Nc1nc2cccc(-c3ccc(S(N)(=O)=O)c(S(N)(=O)=O)c3-c3nn[nH]n3)c2[nH]1` [Example 1, 4-(2-amino-3H-benzo[d]imidazol-4-yl)-3-(2H-tetrazol-5-yl)benzene-1,2-disulfonamide] reads 0.65.
The result for `CC(C)(CN)NS(=O)(=O)c1ccc(-c2cccnc2N)c(-c2nn[nH]n2)c1S(N)(=O)=O` [Example 211, N1-(1-amino-2-methylpropan-2-yl)-4-(2-aminopyridin-3-yl)-3-(2H-tetrazol-5-yl)benzene-1,2-disulfonamide] reads 4.00; that for `Nc1nc2c(-c3ccc(S(=O)(=O)N[C@@H]4CN[C@@H](CO)C4)c(S(N)(=O)=O)c3-c3nnn[nH]3)cccc2s1` [Example 79, 4-(2-amino-1,3-benzothiazol-4-yl)-N1-[(3S,5R)-5-(hydroxymethyl)pyrrolidin-3-yl]-3-(1H-tetrazol-5-yl)benzene-1,2-disulfonamide], 0.50; that for `Nc1nc2c(-c3ccc(S(=O)(=O)NC[C@@H]4CCNC4)c(S(N)(=O)=O)c3-c3nnn[nH]3)cccc2s1` [Example 75, 4-(2-amino-1,3-benzothiazol-4-yl)-N^1-[(3R)-pyrrolidin-3-ylmethyl]-3-(1H-tetrazol-5-yl)benzene-1,2-disulfonamide], 1.00.
Then `CC(CN1CCOCC1)NS(=O)(=O)c1ccc(-c2cccc3sc(N)nc23)c(-c2nnn[nH]2)c1S(N)(=O)=O` (stereo not shown) [Example 51, 4-(2-amino-1,3-benzothiazol-4-yl)-N1-(1-methyl-2-morpholin-4-ylethyl)-3-(1H-tetrazol-5-yl)benzene-1,2-disulfonamide], with 4.00; and `Nc1nc2c(-c3ccc(S(=O)(=O)N[C@@H]4CCNC4)c(S(N)(=O)=O)c3-c3nn[nH]n3)cccc2[nH]1` [Example 161, 4-(2-amino-1H-benzo[d]imidazol-4-yl)-N^1—((R)-pyrrolidin-3-yl)-3-(2H-tetrazol-5-yl)benzene-1,2-disulfonamide], with 0.78; and `CN(C)C1CN(S(=O)(=O)c2ccc(-c3cccc4sc(N)nc34)c(-c3nnn[nH]3)c2S(N)(=O)=O)C1` [Example 39, 3-(2-amino-1,3-benzothiazol-4-yl)-6-{[3-(dimethylamino)azetidin-l-yl]sulfonyl}-2-(1H-tetrazol-5-yl)benzenesulfonamide], with 16.00.
As to `Nc1ccc(-c2ccc(S(=O)(=O)NC[C@@]3(N)CCNC3)c(S(N)(=O)=O)c2-c2nn[nH]n2)cn1` [Example 369, (R)-4-(6-aminopyridin-3-yl)-N1-((3-aminopyrrolidin-3-yl)methyl)-3-(2H-tetrazol-5-yl)benzene-1,2-disulfonamide], the Efflux ratio amounted to 1.00.
Then `NC[C@@H](CO)NS(=O)(=O)c1ccc(-c2cccc3sc(N)nc23)c(-c2nnn[nH]2)c1S(N)(=O)=O` [Example 201, (S)—N^1-(1-amino-3-hydroxypropan-2-yl)-4-(2-aminobenzo[d]thiazol-4-yl)-3-(1H-tetrazol-5-yl)benzene-1,2-disulfonamide], with 0.50; and `Nc1ccc2cccc(-c3ccc(S(=O)(=O)N[C@@H]4CNC[C@@H]4N)c(S(N)(=O)=O)c3-c3nn[nH]n3)c2n1` [Example 319, N^1-((3R,4S)-4-aminopyrrolidin-3-yl)-4-(2-aminoquinolin-8-yl)-3-(2H-tetrazol-5-yl)benzene-1,2-disulfonamide], with 1.00.
Then `Nc1nc2c(-c3ccc(S(=O)(=O)NCCO)c(S(N)(=O)=O)c3-c3nn[nH]n3)cccc2s1` [Example 144, 4-(2-aminobenzo[d]thiazol-4-yl)-N1-(2-hydroxyethyl)-3-(2H-tetrazol-5-yl)benzene-1,2-disulfonamide], with 1.00; and `C[C@H](N)CC(=O)NS(=O)(=O)c1ccc(-c2cccc3[nH]c(N)nc23)c(-c2nn[nH]n2)c1S(N)(=O)=O` [Example 208, (S)-3-amino-N-((4-(2-amino-1H-benzo[d]imidazol-4-yl)-2-sulfamoyl-3-(2H-tetrazol-5-yl)phenyl)sulfonyl)butanamide], with 1.00.
With `NS(=O)(=O)c1c(S(=O)(=O)N[C@@H]2CCNC2)ccc(-c2cccnc2N2CCNCC2)c1-c1nn[nH]n1` [Example 220, (R)-4-(2-(piperazin-1-yl)pyridin-3-yl)-N1-(pyrrolidin-3-yl)-3-(2H-tetrazol-5-yl)benzene-1,2-disulfonamide], the Efflux ratio amounted to 4.00.
As for `NC[C@H](N)CNS(=O)(=O)c1ccc(-c2cnccc2N)c(-c2nn[nH]n2)c1S(N)(=O)=O` [Example 223, (S)-4-(4-aminopyridin-3-yl)-N1-(2,3-diaminopropyl)-3-(2H-tetrazol-5-yl)benzene-1,2-disulfonamide], the Efflux ratio stood at 2.00.
For `Nc1nc2c(-c3ccc(S(=O)(=O)NC4C5CNCC54)c(S(N)(=O)=O)c3-c3nnn[nH]3)cccc2s1.O=C(O)C(F)(F)F` (stereo not shown) [Example 111, 6-(4-(2-aminobenzo[d]thiazol-4-yl)-2-sulfamoyl-3-(1H-tetrazol-5-yl)phenylsulfonamido)-3-azabicyclo[3.1.0]hexan-3-ium 2,2,2-trifluoroacetate], the Efflux ratio is recorded as 0.50.
